Data taken from patent US20050154010A1 (The Regents of University of California, priority 2002, published 2005).
Where a name gives a salt, the structure may show the parent alone.

Assays:
[1] = in vivo; cited from earlier work
[2] = test system: 60 human tumor cell lines; assay: cells; format: cell-based
Description: The operation of this screen utilizes 60 different human tumor cell lines, representing leukemia, melanoma, and cancers of the lung, colon, brain, ovary, breast, prostate, and kidney. The aim is to prioritize for further evaluation, synthetic compounds or natural product samples showing selective growth inhibition or cell killing of particular tumor cell lines. This screen is unique in that the complexity of a 60-cell line dose response produced by a given compound results in a biological response pattern which can be utilized in pattern recognition algorithms. Using these algorithms, it is possible to assign a putative mechanism of action to a test compound, or to determine that the response pattern is unique and not similar to that of any of the standard prototype compounds included in the NCI database (see DTP Overview tab). In addition, following characterization of various cellular molecular targets in the 60 cell lines, it may be possible to select compounds most likely to interact with a specific molecular target.
(§1) The human tumor cell lines of the cancer screening panel are grown in RPMI 1640 medium containing 5% fetal bovine serum and 2 mM L-glutamine. For a typical screening experiment, cells are inoculated into 96 well microtiter plates in 100 μL at plating densities ranging from 5,000 to 40,000 cells/well depending on the doubling time of individual cell lines. After cell inoculation, the microtiter plates are incubated at 37° C., 5% CO2, 95% air and 100% relative humidity for 24 h prior to addition of experimental drugs. After 24 h, two plates of each cell line are fixed iin situ with TCA, to represent a measurement of the cell population for each cell line at the time of drug addition (Tz).
Experimental drugs are solubilized in dimethyl sulfoxide at 400-fold the desired final maximum test concentration and stored frozen prior to use. […]
Cells are fixed in situ by the gentle addition of 50 μl of cold 50% (w/v) TCA (final concentration, 10% TCA) and incubated for 60 minutes at 4° C. […] Bound stainis subsequently solubilized with 10 mM trizma base, and the absorbance is read on an automated plate reader at a wavelength of 515 nm. […] Using the seven absorbance measurements [time zero, (Tz), control growth, (C), and test growth in the presence of drug at the five concentration levels ( ? )], tile percentage growth is calculated at each of the drug concentrations levels. Percentage growth inhibition is calculated as: [(Ti−Tz)/(C−Tz)]×100 for concentrations for which Ti>/=Tz [(Ti−Tz)/Tz]×100 for concentrations for which Ti<Tz
Three dose-response parameters are calculated for each experimental agent. […]

[3] = test system: NCI-H23; assay: NCI In Vitro Cell Line Screening; format: cell-based; conditions: Homo sapiens; NCI-H23, Non-Small Cell Lung Cancer
Procedure: as §1
(§2) Experimental drugs are solubilized in dimethyl sulfoxide at 400-fold the desired final maximum test concentration and stored frozen prior to use. At the time of drug addition, an aliquot of frozen concentrate is thawed and diluted to twice the desired final maximum test concentration with complete medium containing 50 μg/ml gentamicin. Additional four, 10-fold or ½ log serial dilutions are made to provide a total of five drug concentrations plus control. Aliquots of 100 μl of these different drug dilutions are added to the appropriate microtiter wells already containing 100 μl of medium, resulting in the required final drug concentrations. Following drug addition, the plates are incubated for an additional 48 h at 37° C., 5% CO2, 95% air, and 100% relative humidity. For adherent cells, the assay is terminated by the addition of cold TCA.
(§3) Cells are fixed in situ by the gentle addition of 50 μl of cold 50% (w/v) TCA (final concentration, 10% TCA) and incubated for 60 minutes at 4° C. The supernatant is discarded, and the plates are washed five times with tap water and air-dried. Sulforhodamine B (SRB) solution (100 μl) at 0.4% (w/v) in 1% acetic acid is added to each well, and plates are incubated for 10 minutes at room temperature. After staining, unbound dye is removed by washing five times with 1% acetic acid and the plates are air dried. Bound stainis subsequently solubilized with 10 mM trizma base, and the absorbance is read on an automated plate reader at a wavelength of 515 nm. For suspension cells, the methodology is the same except that the assay is terminated by fixing settled cells at the bottom of the wells by gently adding 50 μl of 80% TCA (final concentration, 16% TCA). Using the seven absorbance measurements [time zero, (Tz), control growth, (C), and test growth in the presence of drug at the five concentration levels ( ? )], tile percentage growth is calculated at each of the drug concentrations levels. Percentage growth inhibition is calculated as: [(Ti−Tz)/(C−Tz)]×100 for concentrations for which Ti>/=Tz [(Ti−Tz)/Tz]×100 for concentrations for which Ti<Tz
(§4) Three dose-response parameters are calculated for each experimental agent. Growth inhibition of 50% (GI50) is calculated from [(Ti−Tz)/(C−Tz)]×100=50, which is the drug concentration resulting in a 50% reduction in the net protein increase (as measured by SRB staining) in control cells during the drug incubation. The drug concentration resulting in total growth inhibition (TGI) is calculated from Ti=Tz. The LC50 (concentration of drug resulting in a 50% reduction in the measured protein at the end of the drug treatment as compared to that at the beginning) indicating a net loss of cells following treatment is calculated from [(Ti−Tz)/Tz]×100=−50. Values are calculated for each of these three parameters if the level of activity is reached; however, if the effect is not reached or is exceeded, the value for that parameter is expressed as greater or less than the maximum or minimum concentration tested.

[4] = test system: CAK-1; assay: NCI In Vitro Cell Line Screening; format: cell-based; conditions: Homo sapiens; CAK-1, Renal Cell Carcinoma
Procedure: as §1, §2, §3, §4

[5] = test system: HCC-2998; assay: NCI In Vitro Cell Line Screening; format: cell-based; conditions: Homo sapiens; HCC-2998, Colon Cancer
Procedure: as §1, §2, §3, §4

[6] = test system: SK-MEL-5; assay: NCI In Vitro Cell Line Screening; format: cell-based; conditions: Homo sapiens; SK-MEL-5, Melanoma
Procedure: as §1, §2, §3, §4

[7] = test system: NCI-H460; assay: NCI In Vitro Cell Line Screening; format: cell-based; conditions: Homo sapiens; NCI-H460, Non-Small Cell Lung Cancer
Procedure: as §1, §2, §3, §4

[8] = test system: RXF 393; assay: NCI In Vitro Cell Line Screening; format: cell-based; conditions: Homo sapiens; RXF 393, Renal Cell Carcinoma
Procedure: as §1, §2, §3, §4

[9] = test system: OVCAR-4; assay: NCI In Vitro Cell Line Screening; format: cell-based; conditions: Homo sapiens; OVCAR-4, Ovarian Carcinoma
Procedure: as §1, §2, §3, §4

[10] = test system: LOX IMVI; assay: NCI In Vitro Cell Line Screening; format: cell-based; conditions: Homo sapiens, Melanoma
Procedure: as §1, §2, §3, §4

[11] = test system: Chronic lymphocytic leukemia cells (CLL); assay: Viable CLL cells after 48 hours exposure, dye exclusion and flow cytometric analysis; format: cell-based, human
Procedure: (§5) After 48 hours exposure, the number of viable cells was determined by dye exclusion and flow cytometric analysis.

[12] = test system: Chronic lymphocytic leukemia cells (CLL); assay: Flow cytometry (propidium iodide, DiOC6) of CLL cells after 24 hours exposure; format: cell-based, human; conditions: 10 μM, FIG. 2
Procedure: After 24 hours exposure, the percentage of living (lower-right corner), apoptotic (lower-left corner) and dead (higher-left corner) were analyzed by flow cytometry using propidium iodide (y axis) and DiOC6 (x axis). The results, showing the activity of the (+) and (−) enantiomers against CLL cells, are seen in FIG. 2.

[13] = in vivo; cited from earlier work; remark: listed apart in the source
[14] = test system: LNCap; assay: MTT assay, cell viability; format: cell-based; conditions: Prostate, 72 hours exposure
Procedure: (§6) After 72 hours exposure, the viability of the cells was determined by the rate of conversion of the formazan salt measuring the optical density (OD) at 570 nm (MTT assay).

[15] = test system: MCF7; assay: MTT assay, cell viability; format: cell-based; conditions: MCF7, Breast, 72 hours exposure
Procedure: as §6

[16] = test system: U266; assay: MTT assay, cell viability; format: cell-based; conditions: U266, Myeloma, 72 hours exposure
Procedure: as §6

[17] = test system: SU-DHL9; assay: MTT assay, cell viability; format: cell-based; conditions: SU-DHL9, Lymphoma, 72 hours exposure
Procedure: as §6

[18] = test system: RAJI; assay: MTT assay, cell viability; format: cell-based; conditions: Lymphoma, 72 hours exposure
Procedure: as §6

[19] = test system: HCT-116; assay: MTT assay, cell viability; format: cell-based; conditions: HCT-116, Colon, 72 hours exposure
Procedure: as §6

[20] = test system: SU-DHL1; assay: MTT assay, cell viability; format: cell-based; conditions: SU-DHL1, Lymphoma, 72 hours exposure
Procedure: as §6

[21] = test system: RPMI8226; assay: MTT assay, cell viability; format: cell-based; conditions: RPMI8226, Myeloma, 72 hours exposure
Procedure: as §6

[22] = test system: MDA-231; assay: MTT assay, cell viability; format: cell-based; conditions: MDA-231, Breast, 72 hours exposure
Procedure: as §6

[23] = test system: 10C9; assay: MTT assay, cell viability; format: cell-based; conditions: 10C9, Lymphoma, 72 hours exposure
Procedure: as §6

[24] = cited from earlier work
[25] = cited from earlier work; remark: listed apart in the source
[26] = test system: CLL cells; conditions: Lagneaux et al. 2001; not feasible in vivo due to toxicity; cited from earlier work
[27] = test system: peripheral blood T lymphocytes; conditions: Meng et al. 1997; cited from earlier work
[28] = test system: control normal lymphocytes (PBL); assay: Viable normal lymphocytes after 48 hours exposure, dye exclusion and flow cytometric analysis; format: cell-based, human; conditions: 10 μM
Procedure: as §5

Compound: O[C@H](c1cc(C(F)(F)F)nc2c(C(F)(F)F)cccc12)[C@@H]1CCCCN1 (racemic) [Mefloquine, (R*,S*)-(±)-alpha-2-piperidinyl-2,8-bis(trifluoromethyl)-4-quinolinemethanol]
- bioavailability [1]: 80%
- CC50 ([2]; Homo sapiens, 48 h, read-out: Mean LC50): 87 µM
- GI50 ([2]; Homo sapiens, mean over 60 tumor cell lines, 48 h, SRB): 4 µM
- Mean TGI50 ([2]; mean over 60 tumor cell lines, 48 h, SRB): 26 µM
- number of the 60 cell lines against which active ([2]; of the 60 cell lines in the screen): 58
- GI50 [3]: 2.8 µM
- GI50 [4]: 0.1 µM
- GI50 [5]: 2 µM
- GI50 [6]: 2 µM
- GI50 [7]: 2.1 µM
- GI50 [8]: 1.7 µM
- GI50 [9]: 1.9 µM
- GI50 [10]: 1.3 µM
- concentration effective against CLL cells [11]: ≤ 10 µM

Compound: OC(c1cc(C(F)(F)F)nc2c(C(F)(F)F)cccc12)C1CCCCN1 (single isomer, unassigned; (-)) [(−)Mefloquine]
- activity against CLL cells [12]: activity
- passage of the blood brain barrier / accumulation in the brain [13]: does not seem to pass the blood brain barrier
- IC50 [14]: 25 µM
- IC50 [15]: 20 µM
- IC50 [16]: 25 µM
- IC50 [17]: 15 µM
- IC50 [18]: 30 µM
- IC50 [19]: 12 µM
- IC50 [20]: 20 µM
- IC50 [21]: 15 µM
- IC50 [22]: 40 µM
- IC50 [23]: 20 µM

Compound: 2,8-bis-trifluorornethyl-4-quinoline carboxylic acid [Metabolite]
- level accumulated in the plasma ([24]; plasma): up to 10 μM
- Mean (SD) trough concentration, Plasma ([24]; plasma, ten healthy volunteers, 250 mg once weekly for 16 weeks, steady state at week 16): 9.80 (5.07) μmol · 1^−1
- Mean (SD) trough concentration, Serum ([24]; serum, ten healthy volunteers, 250 mg once weekly for 16 weeks, steady state at week 16): 9.44 (5.00) μmol · 1^−1
- Mean (SD) trough concentration, Whole Blood ([24]; whole blood, ten healthy volunteers, 250 mg once weekly for 16 weeks, steady state at week 16): 4.89 (2.58) μmol · 1^−1

Compound: OC(c1cc(C(F)(F)F)nc2c(C(F)(F)F)cccc12)C1CCCCN1 (centres unmarked) [Mefloquine hydrochloride]
- solubility in ethanol ([25]; ethanol): soluble
- solubility in water ([25]; water): slightly soluble

Compound: CCN(CCO)CCCC(C)Nc1ccnc2cc(Cl)ccc12 (centres unmarked) [hydroxychloroquine]
- concentration active against CLL cells [26]: ≥ 30 µg/mL
- apoptosis induction in peripheral blood T lymphocytes [27]: induce apoptosis

Compound: O[C@H](c1cc(C(F)(F)F)nc2c(C(F)(F)F)cccc12)[C@@H]1CCCCN1 (relative stereo) [Mefloquine, (R*,S*)-(±)-alpha-2-piperidinyl-2,8-bis(trifluoromethyl)-4-quinolinemethanol]
- apoptosis induction in normal lymphocytes [28]: not against normal lymphocytes
- apoptosis induction in CLL cells ([11]; 10 μM, 48 hours exposure): inducing potent apoptosis

Compound: O[C@H](c1cc(C(F)(F)F)nc2c(C(F)(F)F)cccc12)[C@@H]1CCCCN1 [(+)-mefloquine]
- activity against CLL cells [12]: activity
- passage of the blood brain barrier / accumulation in the brain [13]: accumulate in the brain
